Test results as given in patent US8466107B2, “Fibrin-binding peptides and conjugates thereof” (Bracco Imaging SpA, priority 2006, dated 2013).
Bridge positions count the residues as written; N and C are the ends. Square brackets hold non-standard residues; d marks the D form. Peptide text beside a SMILES is read from it. * marks the point of attachment. ξ: configuration not given here. αGalNAc = CC(=O)N[C@@H]1[C@@H](O)[C@@H](O)[C@@H](CO)O[C@@H]1*; 5FAM = O=C1OC2(c3ccc(O)cc3Oc3cc(O)ccc32)c2ccc(C(=O)*)cc21; ξTetrahydrofuran2carbonyl = O=C(C1CCCO1)*; Cha = N[C@@H](CC1CCCCC1)C(=O)O; AEEA = NCCOCCOCC(=O)O

Target: DDE (fibrin-derived polypeptide) (Homo sapiens, UniProt P02671+P02675+P02679)
Experiment: Direct binding fluorescence polarization (FP) assay using 5-carboxyfluorescein labeled peptides
Settings: 20 nM CF5-labeled peptide, serial dilutions of DDE, anisotropy read at 485 nm; read-out: KD (μM) Direct Binding (n = 2)
Procedure: Assay of Fibrin Binding Peptides by Direct Binding Fluorescence Polarization (FP) Procedure using 5-Carboxyfluoresein Labeled Peptides
Protocol • 1. Prepare 1 mL of 40 nM solution of 5-carboxyfluorescein-labeled peptide in HEPES dilution buffer (HDB) with 0.01% Tween. • HDB (10 mM HEPES, 150 mM […], 2 mM CaCl2) • 2. Dilute the 40 nM solution to obtain 1 ml of a 20 nM solution of the test 5-carboxyfluorescein-labeled peptide. • 3. Prepare a solution of DDE at a concentration that will be approximately 5-10 fold greater than the expected KD. For the described assay an 8 μM concentration of DDE was prepared. • 4. Mix equal volumes of the DDE solution with the 40 nM peptide solution. • 5. Prepare serial dilutions of DDE in a solution consisting of the binding buffer with 0.01% Tween20 and 20 nM of the 5-carboxyfluorescein-labeled peptide. • 6. Make dilutions as shown in the following table in a Labsystems 384-well microplate and mix by repeated aspiration and dispensing of the solution into the wells. • 7. Centrifuge the plate at 2000 RPM for 5 minutes to remove air pockets in the wells. • 8. Read in Tecan Polarion Plate Reader at 485 nm to obtain the anisotropy value.
The anisotropy (in mP—millipolarization units) vs the logarithm of the concentration (micromoles/liter) of the receptor concentration is graphed. The dissociation constant is obtained at the midpoint of the curve whose extrema are Afree and Abound where Afree is the anisotropy of the free peptide and Abound is the anisotropy of the fully bound peptide. The theory, methods of operation and mathematical analysis is described in, for example, the following reference: Fluorescence Polarization Technical Resource Guide Technical Resource Guide 4th Edn. Invitrogen Corporation•501 Charmany Drive•Madison, Wis. 53719 USA. Particularly, the mathematical analysis of the data and obtaining binding constants is described in Chapter 8: Analysis of FP Binding Data pp 8-2-8-7.

Sequence of DDE (fibrin-derived polypeptide) (P02671 124-216): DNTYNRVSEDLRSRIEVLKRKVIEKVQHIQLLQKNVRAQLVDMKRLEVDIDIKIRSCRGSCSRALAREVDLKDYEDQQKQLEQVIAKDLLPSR
Sequence of DDE (fibrin-derived polypeptide) (P02675 164-491): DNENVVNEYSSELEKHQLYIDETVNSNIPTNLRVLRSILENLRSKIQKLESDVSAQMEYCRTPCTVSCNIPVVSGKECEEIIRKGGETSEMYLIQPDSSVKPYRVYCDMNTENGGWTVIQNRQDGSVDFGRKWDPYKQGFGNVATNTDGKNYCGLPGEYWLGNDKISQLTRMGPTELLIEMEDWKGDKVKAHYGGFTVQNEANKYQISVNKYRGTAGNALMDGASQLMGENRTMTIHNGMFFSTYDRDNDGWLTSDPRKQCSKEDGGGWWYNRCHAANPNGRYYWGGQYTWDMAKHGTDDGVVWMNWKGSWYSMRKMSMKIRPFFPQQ
Sequence of DDE (fibrin-derived polypeptide) (P02679 114-432): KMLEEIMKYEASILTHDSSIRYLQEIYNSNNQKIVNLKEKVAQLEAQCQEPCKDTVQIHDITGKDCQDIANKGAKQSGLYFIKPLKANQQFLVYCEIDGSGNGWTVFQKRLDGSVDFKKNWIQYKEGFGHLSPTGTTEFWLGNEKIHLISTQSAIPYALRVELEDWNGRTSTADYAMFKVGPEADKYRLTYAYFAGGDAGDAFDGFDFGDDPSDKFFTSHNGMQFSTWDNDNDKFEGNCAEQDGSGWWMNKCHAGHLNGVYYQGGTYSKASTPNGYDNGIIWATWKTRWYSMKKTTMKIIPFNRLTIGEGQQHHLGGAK
Sequence of DDE (fibrin-derived polypeptide) (P02671 36-97): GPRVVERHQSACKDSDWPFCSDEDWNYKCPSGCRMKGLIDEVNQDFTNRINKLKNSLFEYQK
Sequence of DDE (fibrin-derived polypeptide) (P02675 45-152): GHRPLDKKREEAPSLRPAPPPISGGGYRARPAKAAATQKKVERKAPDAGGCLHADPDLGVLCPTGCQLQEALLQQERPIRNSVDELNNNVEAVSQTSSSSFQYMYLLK
Sequence of DDE (fibrin-derived polypeptide) (P02679 27-88): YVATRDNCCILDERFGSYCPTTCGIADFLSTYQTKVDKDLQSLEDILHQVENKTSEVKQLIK

Row | Structure (SMILES) | Kd [µM]
1 | CC(=O)N[C@H]1[C@@H](OC[C@H](NC(C)=O)C(=O)N[C@@H](Cc2c[nH]c3ccccc23)C(=O)N[C@@H](CCC(N)=O)C(=O)N2CCC[C@H]2C(=O)N[C@H]2CSSC[C@@H](C(=O)N[C@@H](Cc3c[nH]c4ccccc34)C(=O)N[C@@H](CC(=O)O)C(=O)N3CCC[C@H]3C(=O)NCC(=O)NCC(=O)NCC(=O)N[C@@H](CCCCNC(=O)c3ccc4c(c3)C(=O)OC43c4ccc(O)cc4Oc4cc(O)ccc43)C(N)=O)NC(=O)[C@H](Cc3ccccc3)NC(=O)[C@H]([C@@H](C)O)NC(=O)[C@H](Cc3c[nH]c4ccccc34)NC(=O)[C@H](CO)NC(=O)[C@H](CCC(=O)O)NC(=O)[C@H](Cc3c[nH]c4ccccc34)NC(=O)[C@@H]3CCCN3C2=O)O[C@H](CO)[C@H](O)[C@@H]1O [Seq027-CF5] (Ac-S(αGalNAc)WQPCPWESWTFCWDPGGGK(5FAM)-NH2; disulfide 5-13) | 0.5
2 | C[C@@H](O)[C@@H]1NC(=O)[C@H](Cc2c[nH]c3ccccc23)NC(=O)[C@H](CO)NC(=O)[C@H](CCC(=O)O)NC(=O)[C@H](Cc2c[nH]c3ccccc23)NC(=O)[C@@H]2CCCN2C(=O)[C@@H](NC(=O)[C@@H]2CCCN2C(=O)[C@H](CCC(N)=O)NC(=O)[C@H](Cc2c[nH]c3ccccc23)NC(=O)C2CCCO2)CSSC[C@@H](C(=O)N[C@@H](Cc2c[nH]c3ccccc23)C(=O)N[C@@H](CC(=O)O)C(=O)N2CCC[C@H]2C(=O)NCC(=O)NCC(=O)NCC(=O)N[C@@H](CCCCNC(=O)c2ccc3c(c2)C(=O)OC32c3ccc(O)cc3Oc3cc(O)ccc32)C(N)=O)NC(=O)[C@H](Cc2ccccc2)NC1=O (some centres unmarked) [Seq028-CF5] (ξTetrahydrofuran2carbonyl-WQPCPWESWTFCWDPGGGK(5FAM)-NH2; disulfide 4-12) | 1.21
3 | CC(=O)NCC(=O)NCC(=O)N[C@@H](CCCNC(=N)N)C(=O)NCC(=O)N[C@@H](Cc1c[nH]c2ccccc12)C(=O)N[C@@H](CCC(N)=O)C(=O)N1CCC[C@H]1C(=O)N[C@H]1CSSC[C@@H](C(=O)N[C@@H](Cc2c[nH]c3ccccc23)C(=O)N[C@@H](CC(=O)O)C(=O)N2CCC[C@H]2C(=O)NCC(=O)NCC(=O)NCC(=O)N[C@@H](CCCCNC(=O)c2ccc3c(c2)C(=O)OC32c3ccc(O)cc3Oc3cc(O)ccc32)C(N)=O)NC(=O)[C@H](Cc2ccccc2)NC(=O)[C@H]([C@@H](C)O)NC(=O)[C@H](Cc2c[nH]c3ccccc23)NC(=O)[C@H](CO)NC(=O)[C@H](CCC(=O)O)NC(=O)[C@H](C)NC(=O)[C@@H]2CCCN2C1=O [Seq035-CF5] (Ac-GGRGWQPCPAESWTFCWDPGGGK(5FAM)-NH2; disulfide 8-16) | 0.52
4 | CC(=O)N[C@@H](CO)C(=O)NCC(=O)N[C@@H](CO)C(=O)NCC(=O)N[C@@H](CO)C(=O)NCC(=O)N[C@@H](CO)C(=O)NCC(=O)N[C@@H](Cc1c[nH]c2ccccc12)C(=O)N[C@@H](CCC(N)=O)C(=O)N1CCC[C@H]1C(=O)N[C@H]1CSSC[C@@H](C(=O)N[C@@H](Cc2c[nH]c3ccccc23)C(=O)N[C@@H](CC(=O)O)C(=O)N2CCC[C@H]2C(=O)NCC(=O)NCC(=O)NCC(=O)N[C@@H](CCCCNC(=O)c2ccc3c(c2)C(=O)OC32c3ccc(O)cc3Oc3cc(O)ccc32)C(N)=O)NC(=O)[C@H](Cc2ccccc2)NC(=O)[C@H]([C@@H](C)O)NC(=O)[C@H](Cc2c[nH]c3ccccc23)NC(=O)[C@H](CO)NC(=O)[C@H](CCC(=O)O)NC(=O)[C@H](C)NC(=O)[C@@H]2CCCN2C1=O [Seq040-CF5] (Ac-SGSGSGSGWQPCPAESWTFCWDPGGGK(5FAM)-NH2; disulfide 12-20) | 0.53
5 | CC(=O)N[C@@H](CO)C(=O)NCC(=O)N[C@@H](CO)C(=O)NCC(=O)NCCOCCOCC(=O)N[C@@H](Cc1c[nH]c2ccccc12)C(=O)N[C@@H](CCC(N)=O)C(=O)N1CCC[C@H]1C(=O)N[C@H]1CSSC[C@@H](C(=O)N[C@@H](Cc2c[nH]c3ccccc23)C(=O)N[C@@H](CC(=O)O)C(=O)N2CCC[C@H]2C(=O)NCC(=O)NCC(=O)NCC(=O)N[C@@H](CCCCNC(=O)c2ccc3c(c2)C(=O)OC32c3ccc(O)cc3Oc3cc(O)ccc32)C(N)=O)NC(=O)[C@H](Cc2ccccc2)NC(=O)[C@H]([C@@H](C)O)NC(=O)[C@H](Cc2c[nH]c3ccccc23)NC(=O)[C@H](CO)NC(=O)[C@H](CCC(=O)O)NC(=O)[C@H](C)NC(=O)[C@@H]2CCCN2C1=O [Seq045-CF5] (Ac-SGSG[AEEA]WQPCPAESWTFCWDPGGGK(5FAM)-NH2; disulfide 9-17) | 0.57
6 | CC(=O)N[C@@H](CCCNC(=N)N)C(=O)N[C@@H](CCCNC(=N)N)C(=O)NCC(=O)NCC(=O)N[C@@H](Cc1c[nH]c2ccccc12)C(=O)N[C@@H](CCC(N)=O)C(=O)N1CCC[C@H]1C(=O)N[C@H]1CSSC[C@@H](C(=O)N[C@@H](Cc2c[nH]c3ccccc23)C(=O)N[C@@H](CC(=O)O)C(=O)N2CCC[C@H]2C(=O)NCC(=O)NCC(=O)NCC(=O)N[C@@H](CCCCNC(=O)c2ccc3c(c2)C(=O)OC32c3ccc(O)cc3Oc3cc(O)ccc32)C(N)=O)NC(=O)[C@H](Cc2ccccc2)NC(=O)[C@H]([C@@H](C)O)NC(=O)[C@H](Cc2c[nH]c3ccccc23)NC(=O)[C@H](CO)NC(=O)[C@H](CCC(=O)O)NC(=O)[C@H](C)NC(=O)[C@@H]2CCCN2C1=O [Seq046-CF5] (Ac-RRGGWQPCPAESWTFCWDPGGGK(5FAM)-NH2; disulfide 8-16) | 0.22
7 | CC(=O)N[C@@H](CCCNC(=N)N)C(=O)N[C@@H](Cc1c[nH]c2ccccc12)C(=O)N[C@@H](CCC(N)=O)C(=O)N1CCC[C@H]1C(=O)N[C@H]1CSSC[C@@H](C(=O)N[C@@H](Cc2c[nH]c3ccccc23)C(=O)N[C@@H](CC(=O)O)C(=O)N2CCC[C@H]2C(=O)NCC(=O)NCC(=O)NCC(=O)N[C@@H](CCCCNC(=O)c2ccc3c(c2)C(=O)OC32c3ccc(O)cc3Oc3cc(O)ccc32)C(N)=O)NC(=O)[C@H](Cc2ccccc2)NC(=O)[C@H]([C@@H](C)O)NC(=O)[C@H](Cc2c[nH]c3ccccc23)NC(=O)[C@H](CO)NC(=O)[C@H](CCC(=O)O)NC(=O)[C@H](Cc2c[nH]c3ccccc23)NC(=O)[C@@H]2CCCN2C1=O [Seq048-CF5] (Ac-RWQPCPWESWTFCWDPGGGK(5FAM)-NH2; disulfide 5-13) | 0.11

The remaining lines, values ahead:

Row | Kd [µM] | Structure (SMILES)
8 | 0.31 | CC(=O)NCC(=O)N1CCC[C@H]1C(=O)N1CCC[C@H]1C(=O)NCC(=O)N[C@@H](Cc1c[nH]c2ccccc12)C(=O)N[C@@H](CCC(N)=O)C(=O)N1CCC[C@H]1C(=O)N[C@H]1CSSC[C@@H](C(=O)N[C@@H](Cc2c[nH]c3ccccc23)C(=O)N[C@@H](CC(=O)O)C(=O)N2CCC[C@H]2C(=O)NCC(=O)NCC(=O)NCC(=O)N[C@@H](CCCCNC(=O)c2ccc3c(c2)C(=O)OC32c3ccc(O)cc3Oc3cc(O)ccc32)C(N)=O)NC(=O)[C@H](Cc2ccccc2)NC(=O)[C@H]([C@@H](C)O)NC(=O)[C@H](Cc2c[nH]c3ccccc23)NC(=O)[C@H](CO)NC(=O)[C@H](CCC(=O)O)NC(=O)[C@H](C)NC(=O)[C@@H]2CCCN2C1=O [Seq034-CF5] (Ac-GPPGWQPCPAESWTFCWDPGGGK(5FAM)-NH2; disulfide 8-16)
9 | 0.24 | C[C@@H]1NC(=O)[C@@H]2CCCN2C(=O)[C@@H](NC(=O)[C@@H]2CCCN2C(=O)[C@H](CCC(N)=O)NC(=O)[C@H](Cc2c[nH]c3ccccc23)NC(=O)CN)CSSC[C@@H](C(=O)N[C@@H](Cc2c[nH]c3ccccc23)C(=O)N[C@@H](CC(=O)O)C(=O)N2CCC[C@H]2C(=O)NCC(=O)NCC(=O)NCC(=O)N[C@@H](CCCCNC(=O)c2ccc3c(c2)C(=O)OC32c3ccc(O)cc3Oc3cc(O)ccc32)C(N)=O)NC(=O)[C@H](Cc2ccccc2)NC(=O)[C@H]([C@@H](C)O)NC(=O)[C@H](Cc2c[nH]c3ccccc23)NC(=O)[C@H](CO)NC(=O)[C@H](CCC(=O)O)NC1=O [Seq038-CF5] (H-GWQPCPAESWTFCWDPGGGK(5FAM)-NH2; disulfide 5-13; N-terminus assumed)
10 | 0.24 | CC(=O)NCC(=O)N[C@@H](Cc1c[nH]c2ccccc12)C(=O)N[C@@H](CCC(N)=O)C(=O)N1CCC[C@H]1C(=O)N[C@H]1CSSC[C@@H](C(=O)N[C@@H](Cc2c[nH]c3ccccc23)C(=O)N[C@@H](CC(=O)O)C(=O)N2CCC[C@H]2C(=O)NCC(=O)NCC(=O)NCC(=O)N[C@@H](CCCCNC(=O)c2ccc3c(c2)C(=O)OC32c3ccc(O)cc3Oc3cc(O)ccc32)C(N)=O)NC(=O)[C@H](Cc2ccccc2)NC(=O)[C@H]([C@@H](C)O)NC(=O)[C@H](Cc2c[nH]c3ccccc23)NC(=O)[C@H](CO)NC(=O)[C@H](CCC(=O)O)NC(=O)[C@H](C)NC(=O)[C@@H]2CCCN2C1=O [Seq039-CF5] (Ac-GWQPCPAESWTFCWDPGGGK(5FAM)-NH2; disulfide 5-13)
11 | 0.17 | CC(=O)N[C@@H](Cc1c[nH]c2ccccc12)C(=O)N[C@@H](CCC(N)=O)C(=O)N1CCC[C@H]1C(=O)N[C@H]1CSSC[C@@H](C(=O)N[C@@H](Cc2c[nH]c3ccccc23)C(=O)N[C@@H](CC(=O)O)C(=O)N2CCC[C@H]2C(=O)NCC(=O)NCC(=O)NCC(=O)N[C@@H](CCCCNC(=O)c2ccc3c(c2)C(=O)OC32c3ccc(O)cc3Oc3cc(O)ccc32)C(N)=O)NC(=O)[C@H](CC2CCCCC2)NC(=O)[C@H]([C@@H](C)O)NC(=O)[C@H](Cc2c[nH]c3ccccc23)NC(=O)[C@H](CO)NC(=O)[C@H](CCC(=O)O)NC(=O)[C@H](C)NC(=O)[C@@H]2CCCN2C1=O [Seq042-CF5, Ac-WQPC*PAESWT-Cha-C*WDPGGGK(CF5)-NH2] (Ac-WQPCPAESWT[Cha]CWDPGGGK(5FAM)-NH2; disulfide 4-12)
